Measurements as given in patent publication US12187723B2 (BRISTOL-MYERS SQUIBB COMPANY, priority 2019, dated 2025).

Key:
human TLR7 = biological target: T1, human TLR7 (Homo sapiens, UniProt Q9NYK1); experiment: TLR7 inhibition reporter assay (HEK-Blue SEAP); format: cell-based; conditions: HEK-Blue cells overexpressing human TLR7, gardiquimod 7.5 μM, 22 hour incubation
T1 construct: host or cells: HEK-Blue cells
T1 sequence (Q9NYK1 27-1049): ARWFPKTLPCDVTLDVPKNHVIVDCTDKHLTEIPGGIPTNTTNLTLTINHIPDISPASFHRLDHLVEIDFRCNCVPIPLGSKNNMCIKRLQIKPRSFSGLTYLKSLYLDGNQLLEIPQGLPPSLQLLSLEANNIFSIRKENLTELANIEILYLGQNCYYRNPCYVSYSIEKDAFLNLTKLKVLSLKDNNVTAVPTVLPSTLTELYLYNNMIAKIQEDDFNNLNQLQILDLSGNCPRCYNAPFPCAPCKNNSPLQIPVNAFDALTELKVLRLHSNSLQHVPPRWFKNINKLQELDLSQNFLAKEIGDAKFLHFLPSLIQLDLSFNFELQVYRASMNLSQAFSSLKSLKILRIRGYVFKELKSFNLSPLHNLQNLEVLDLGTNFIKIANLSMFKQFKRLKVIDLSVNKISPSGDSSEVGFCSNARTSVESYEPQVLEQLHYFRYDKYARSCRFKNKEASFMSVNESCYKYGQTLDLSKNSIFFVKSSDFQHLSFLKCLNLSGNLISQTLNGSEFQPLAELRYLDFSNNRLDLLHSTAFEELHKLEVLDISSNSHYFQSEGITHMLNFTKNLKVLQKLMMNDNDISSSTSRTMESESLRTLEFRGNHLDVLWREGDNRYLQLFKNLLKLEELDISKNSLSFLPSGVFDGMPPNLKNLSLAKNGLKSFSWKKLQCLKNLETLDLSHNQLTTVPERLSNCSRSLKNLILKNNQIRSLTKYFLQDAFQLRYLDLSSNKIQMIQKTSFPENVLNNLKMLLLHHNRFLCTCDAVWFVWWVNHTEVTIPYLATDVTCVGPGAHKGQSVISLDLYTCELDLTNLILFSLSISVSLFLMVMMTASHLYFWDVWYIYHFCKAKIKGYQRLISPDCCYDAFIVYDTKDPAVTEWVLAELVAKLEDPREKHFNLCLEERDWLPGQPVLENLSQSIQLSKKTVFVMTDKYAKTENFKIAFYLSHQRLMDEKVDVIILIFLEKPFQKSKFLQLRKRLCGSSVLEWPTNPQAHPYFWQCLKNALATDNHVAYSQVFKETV
Summary of the method: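 Cells (15000/well for TLR7, 20,000 for TLR8) were treated with compounds over 0.05 nM-50 μM final. After 22 h at 37° C, 5% CO2, SEAP was measured with HEK-Blue Detection reagent; percent inhibition was taken as reduction of agonist-plus-DMSO signal relative to a known inhibitor.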

human TLR9 = biological target: T2, human TLR9 (Homo sapiens, UniProt Q9NR96); experiment: TLR9 inhibition reporter assay (HEK-Blue SEAP); format: cell-based; conditions: HEK-Blue cells overexpressing human TLR9, ODN2006 5 nM, 22 hour incubation
T2 construct: host or cells: HEK-Blue cells
T2 sequence (Q9NR96 26-1032): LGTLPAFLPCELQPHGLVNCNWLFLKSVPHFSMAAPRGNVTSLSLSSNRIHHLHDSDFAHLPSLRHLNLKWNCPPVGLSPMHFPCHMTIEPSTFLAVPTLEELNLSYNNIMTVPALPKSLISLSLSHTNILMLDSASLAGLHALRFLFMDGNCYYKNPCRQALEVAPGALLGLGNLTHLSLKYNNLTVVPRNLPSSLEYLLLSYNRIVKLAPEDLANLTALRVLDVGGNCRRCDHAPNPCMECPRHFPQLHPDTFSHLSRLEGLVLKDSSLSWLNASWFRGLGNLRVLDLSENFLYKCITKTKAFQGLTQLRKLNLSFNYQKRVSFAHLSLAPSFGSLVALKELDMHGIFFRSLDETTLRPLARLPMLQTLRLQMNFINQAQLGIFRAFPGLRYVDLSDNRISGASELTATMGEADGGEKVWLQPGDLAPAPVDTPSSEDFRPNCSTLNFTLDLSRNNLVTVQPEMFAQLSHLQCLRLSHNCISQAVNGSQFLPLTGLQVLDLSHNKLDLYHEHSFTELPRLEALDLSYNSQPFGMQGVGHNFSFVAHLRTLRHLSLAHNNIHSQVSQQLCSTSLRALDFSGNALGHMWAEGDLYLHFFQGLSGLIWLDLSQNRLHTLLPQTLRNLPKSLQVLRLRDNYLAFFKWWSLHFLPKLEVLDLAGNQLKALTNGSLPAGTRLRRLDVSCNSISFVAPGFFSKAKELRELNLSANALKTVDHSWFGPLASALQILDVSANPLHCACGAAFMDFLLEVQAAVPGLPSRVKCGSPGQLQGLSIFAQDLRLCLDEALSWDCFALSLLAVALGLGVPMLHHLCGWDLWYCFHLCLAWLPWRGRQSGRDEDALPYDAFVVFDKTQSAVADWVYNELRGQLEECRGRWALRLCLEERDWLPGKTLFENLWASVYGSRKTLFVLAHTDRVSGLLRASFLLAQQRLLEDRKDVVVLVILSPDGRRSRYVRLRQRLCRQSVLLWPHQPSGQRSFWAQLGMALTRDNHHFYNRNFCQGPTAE
Summary of the method: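 Human TLR7/8/9 HEK-Blue reporter lines; dose range 0.05 nM–50 μM; 30 min RT preincubation; stimulus gardiquimod 7.5 μM / R848 15.9 μM / ODN2006 5 nM respectively; 22 h, 37 °C; SEAP detected colorimetrically.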

## Cc1cc2c(cc1-c1cc(C)c3ncnn3c1)[nH]c(=O)n2[C@@H]1CCCN(Cc2ncn(C)n2)C1 [Example 35, (R)-6-methyl-1-(1-((1-methyl-1H-1,2,4-triazol-3-yl)methyl)piperidin-3-yl)-5-(8-methyl-[1,2,4]triazolo[1,5-a]pyridin-6-yl)-1,3-dihydro-2H-benzo[d]imidazol-2-one]
Human TLR7
  IC50: 0.722 µM
Human TLR9
  IC50: > 50 µM
